Active and inactive are the calls of the source. The calls are words filed in the database; no cut-off is given here.
What was measured:
[1] = Cytotoxicity against Homo sapiens (human) WRL68 cells at 100 uM after 48 hr by MTT assay; assay type: cell-based; conditions: read-out: INH
HepG2 [2] = assay: Antiproliferative activity against Homo sapiens (human) HepG2 cells assessed as elongated shaped cells; assay type: functional, cell-based
[3] = biological target: T1, Histone deacetylase (Homo sapiens) (UniProt Q13547+O15379+Q9UBN7+Q92769+Q9UQL6+Q8WUI4+Q9BY41+Q96DB2+P56524+Q9UKV0+Q969S8); assay: Inhibition of histone deacetylase in Homo sapiens (human) HepG2 cells assessed as hyperacetylation of H3 at 100 uM after 8 hr by Western blot analysis; assay type: cell-based
HepG2 [4] = assay: Antiproliferative activity against Homo sapiens (human) HepG2 cells at 100 uM after 120 hr by MTT assay; assay type: functional; conditions: HepG2, 120 h
[5] = biological target: T1, Histone deacetylase (Homo sapiens); assay: Inhibition of histone deacetylase in Homo sapiens (human) HepG2 cells at 100 uM after 8 hr by colorimetry; assay type: cell-based
[6] = biological target: T1, Histone deacetylase (Homo sapiens); assay: Inhibition of histone deacetylase in Homo sapiens (human) HepG2 nuclear extract assessed as low level acetylation of H2B at 100 uM after 8 hr by TAU PAGE analysis; assay type: protein assay
HepG2 [7] = assay: Antiproliferative activity against Homo sapiens (human) HepG2 cells at 100 uM after 48 hr by MTT assay; assay type: functional; conditions: HepG2, 48 h
[8] = biological target: T1, Histone deacetylase (Homo sapiens); assay: Inhibition of histone deacetylase in Homo sapiens (human) HepG2 nuclear extract assessed as hyperacetylation of H3 at 100 uM after 8 hr by TAU PAGE analysis; assay type: protein assay
[9] = biological target: T1, Histone deacetylase (Homo sapiens); assay: Inhibition of histone deacetylase in Homo sapiens (human) HepG2 nuclear extract assessed as hyperacetylation of H4 at 100 uM after 8 hr by TAU PAGE analysis; assay type: protein assay
[10] = biological target: T1, Histone deacetylase (Homo sapiens); assay: Inhibition of histone deacetylase in Homo sapiens (human) HepG2 nuclear extract assessed as low level acetylation of H2A at 100 uM after 8 hr by TAU PAGE analysis; assay type: protein assay
[11] = Cytotoxicity against Homo sapiens (human) WRL68 cells at 100 uM after 120 hr by MTT assay; assay type: cell-based; conditions: read-out: INH
[12] = biological target: T1, Histone deacetylase (Homo sapiens); conditions: HepG2, 1 mM
Description: Inhibition of histone deacetylase in Homo sapiens (human) HepG2 cells at 1 mM after 8 hr by colorimetry

Activity [3]	inhibition [5]	Activity [6]	Activity [8]	Activity [9]	Activity [10]	inhibition [12]	SMILES	cytotoxicity at 48 h, 100 µM [1]	Activity (HepG2 [2])	inhibition at 100 µM (HepG2 [4])	inhibition at 100 µM (HepG2 [7])	cytotoxicity at 120 h, 100 µM [11]
Active	42.1%	Active	Active	Active	Active	–	O=C(NCCCCCCN1C(=O)CSC1=O)c1ccccc1	34.7%	Active	83%	42.3%	92.3%
Active	56.9%	Active	Active	Active	Active	–	O=C1CSC(=O)N1CCCCCCNS(=O)(=O)c1ccccc1	37.5%	Active	69.5%	57.3%	55.6%
–	–	–	–	–	–	52.3%	CCCC(=O)[O-].[Na+]	–	–	–	–	–
